Usually inhibition in vivo stands for the relative decrease from the control value, in per cent. What is called MIC is the least concentration at which growth counts as inhibited.

Assay [1] has as its system Rattus norvegicus. Briefly: Antiinflammatory activity in Wistar rat model of carrageenan-induced paw edema assessed as reduction in thickness of paw edema at 10 mg/kg, ip pretreated for 1 hr followed by carrageenan challenge and measured after 1 hr (reference value: 2.41 +/-0.05 mm). The format is functional. The conditions noted are these: time 1 hr after carrageenan.

The test system of assay [2] is Rattus norvegicus. Briefly: Anti-inflammatory activity in Wistar rat assessed as inhibition of carrageenan-induced paw edema at 10 mg/kg, ip pretreated for 1 hr followed by carrageenan challenge and measured after 1 hr relative to control (reference value: 0.00 +/-0.02 %). As to conditions: time 2 hrs. The assay is classed as functional.
Assay [3] deals with Rattus norvegicus. Briefly: Antiinflammatory activity in Wistar rat model of carrageenan-induced paw edema assessed as reduction in thickness of paw edema at 10 mg/kg, ip pretreated for 1 hr followed by carrageenan challenge and measured after 2 hrs (reference value: 2.06 +/-0.09 mm). The format is functional. As to conditions: time 3 hrs. (Carrageenan injected into the paw causes an acute inflammation.)

Assay [4] has as its system Rattus norvegicus. Briefly: Anti-inflammatory activity in Wistar rat assessed as inhibition of carrageenan-induced paw edema at 10 mg/kg, ip pretreated for 1 hr followed by carrageenan challenge and measured after 2 hr relative to control (reference value: 0.00 +/-0.03 %). The conditions noted are these: time 3 hrs. The assay is classed as functional.
Assay [5] deals with Rattus norvegicus. Briefly: Antiinflammatory activity in Wistar rat model of carrageenan-induced paw edema assessed as reduction in thickness of paw edema at 10 mg/kg, ip pretreated for 1 hr followed by carrageenan challenge and measured after 3 hrs (reference value: 1.79 +/-0.07 mm). The conditions noted are these: time 4 hrs. The assay is classed as functional.
Assay [6] concerns Rattus norvegicus. Briefly: Anti-inflammatory activity in Wistar rat assessed as inhibition of carrageenan-induced paw edema at 10 mg/kg, ip pretreated for 1 hr followed by carrageenan challenge and measured after 3 hr relative to control (reference value: 0.00 +/-0.1 %). The format is functional. As to conditions: time 4 hrs.
Assay [7] concerns Rattus norvegicus. Briefly: Antiinflammatory activity in Wistar rat model of carrageenan-induced paw edema assessed as reduction in thickness of paw edema at 10 mg/kg, ip pretreated for 1 hr followed by carrageenan challenge and measured after 4 hrs (reference value: 1.40 +/-0.10 mm). The conditions noted are these: time 5 hrs. The assay is classed as functional.
The subject of assay [8] is Rattus norvegicus. Briefly: Anti-inflammatory activity in Wistar rat assessed as inhibition of carrageenan-induced paw edema at 10 mg/kg, ip pretreated for 1 hr followed by carrageenan challenge and measured after 4 hr relative to control (reference value: 0.00 +/-0.4 %). The assay is classed as functional. As to conditions: time 5 hrs.
Assay [9] has as its system Rattus norvegicus. Briefly: Antiinflammatory activity in Wistar rat model of carrageenan-induced paw edema assessed as reduction in thickness of paw edema at 10 mg/kg, ip pretreated for 1 hr followed by carrageenan challenge and measured after 24 hrs (reference value: 0.83 +/-0.08 mm). The format is functional. As to conditions: time 25 hrs.
The test system of assay [10] is Rattus norvegicus. Briefly: Anti-inflammatory activity in Wistar rat assessed as inhibition of carrageenan-induced paw edema at 10 mg/kg, ip pretreated for 1 hr followed by carrageenan challenge and measured after 24 hr relative to control (reference value: 0.00 +/-0.3 %). The format is functional. As to conditions: time 25 hrs.
In assay [11] the test system is Rattus norvegicus. Briefly: Anti-inflammatory activity in Wistar rat assessed as inhibition of carrageenan-induced paw edema at 10 mg/kg, ip pretreated for 1 hr followed by carrageenan challenge and measured after 4 hr relative to indomethacin. The format is functional. The conditions noted are these: time 5 hrs.
Assay [12] has as its system Splenocyte. Briefly: Immunomodulatory activity in Swiss albino mouse splenocytes assessed as cell viability at 10 uM by measuring stimulation index incubated for 72 hrs in presence of mitogenic stimulus phytohaemagglutinin by MTT assay (reference value: 1.00 +/- 0.24). The assay is classed as functional. Background: Formazan colour is commonly taken as a measure of viable cells.

Assay [13] concerns Splenocyte. Briefly: Immunomodulatory activity in Swiss albino mouse splenocytes assessed as cell viability at 10 uM by measuring inhibition of stimulation index incubated for 72 hrs in presence of mitogenic stimulus phytohaemagglutinin by MTT assay relative to indomethacin. As to conditions: read-out: Activity. The assay is classed as functional.
Assay [14] deals with Peritoneal macrophage. Briefly: Antiinflammatory activity in […] mouse Peritoneal macrophages assessed as reduction in LPS-induced NO production by measuring reduction in stimulation index at 10 uM preincubated for 1 hr followed by LPS stimulation measured after 24 hrs by Griess method (reference value: 27.31 +/- 2.56 uM). The assay is classed as functional. As to conditions: time 25 hrs. Background: Griess reagent forms a coloured azo dye with nitrite.

In assay [15] the test system is Peritoneal macrophage. Briefly: Antiinflammatory activity in […] mouse Peritoneal macrophages assessed as inhibition of LPS-induced NO production at 10 uM preincubated for 1 hr followed by LPS stimulation measured after 24 hrs by Griess method relative to control (reference value: 0.0 %). The assay is classed as functional. The arrangement: scale not given: the % may be the effect or the level left. The conditions noted are these: time 25 hrs.

The test system of assay [16] is Staphylococcus aureus. Briefly: Antibacterial activity against Staphylococcus aureus ATCC 25923 incubated for 18 hrs by agar dilution method. The assay is classed as functional.
For assay [17], the system named is Streptococcus pyogenes. Briefly: Antibacterial activity against Streptococcus pyogenes ATCC 19615 incubated for 18 hrs by agar dilution method. The format is functional.
Assay [18] concerns Salmonella typhimurium. Briefly: Antibacterial activity against Salmonella typhimurium ATCC 19430 incubated for 18 hrs by agar dilution assay. The format is functional, Salmonella enterica subsp. enterica serovar Typhimurium. As to conditions: Salmonella enterica.
Assay [19] relates to Pseudomonas aeruginosa. Briefly: Antibacterial activity against Pseudomonas aeruginosa ATCC 27853 incubated for 18 hrs by agar dilution assay. The format is functional.
For assay [20], the system named is Candida albicans. Briefly: Antifungal activity against Candida albicans incubated for 18 to 24 hrs by CLSI method. The format is functional. The conditions noted are these: time 18-24 hrs.

The structures appear in SMILES notation. Where “and” joins values, the source holds several entries; their conditions need not be identical. Equal values may be shown once.

In the case of `COc1cc(/C=C/C(=O)/C=C(O)/C=C/c2ccc(OC(=O)[C@H](C)NC(=O)OCC3c4ccccc4-c4ccccc43)c(OC)c2)ccc1OC(=O)[C@H](C)NC(=O)OCC1c2ccccc2-c2ccccc21`, the Activity in assay [1] came out at 2.12 mm; in [3] it was 1.59 mm; in [5], 1.02 mm; in [7], 0.62 mm; in [9], 0.41 mm; in [14], 21.79 µM. The Activity in [15] is 20.22%. Further, the inhibition in vivo at 10 mg/kg amounted to 12% in assay [2]; 23% in assay [4]; 43% in assay [6]; 56% in assay [8]; 51% in [10]; 64% in assay [11]. Moreover, in [12], the Activity_index was determined as 2.22. For the same compound, in assay [13], the viability at 10 µM was 54.4%. The minimal inhibitory concentration (MIC) in [16] was 0.5 µg/mL and 0.524 µM; in [17], 0.5 µg/mL and 0.524 µM; in [18], 0.25 µg/mL and 0.262 µM; in [19], 0.25 µg/mL and 0.262 µM; in assay [20], 1 µg/mL and 1.05 µM.
Regarding `COc1cc(/C=C/C(=O)/C=C(O)/C=C/c2ccc(OC(=O)CNC(=O)OCc3ccccc3)c(OC)c2)ccc1OC(=O)CNC(=O)OCc1ccccc1`, the Activity in [1] was determined as 0.87 mm; in [3] it was 1.41 mm; in assay [5], 1.13 mm; in [7], 0.92 mm; in [9], 0.83 mm; in [14] it was 24.55 µM. Besides, the Activity in assay [15] is 10.11%. Besides, the inhibition in vivo at 10 mg/kg is 64% in [2]; 32% in assay [4]; 37% in [6]; 34% in assay [8]; 0% in assay [10]; 39% in [11]. Moreover, in assay [12], the Activity_index is on record as 2.64. Further, the viability at 10 µM in assay [13] was found to be 45.8%. Moreover, the minimal inhibitory concentration (MIC) in assay [16] is 0.125 µg/mL and 0.166 µM; in assay [17], 0.125 µg/mL and 0.166 µM; in assay [18], 0.5 µg/mL and 0.666 µM; in [19], 1 µg/mL and 1.33 µM; in assay [20], 0.5 µg/mL and 0.666 µM.
For the compound `COc1cc(/C=C/C(=O)/C=C(O)/C=C/c2ccc(OC(=O)CCNC(=O)OC(C)(C)C)c(OC)c2)ccc1OC(=O)CCNC(=O)OC(C)(C)C`, the Activity in [1] was found to be 1.66 mm; in assay [3], 1.38 mm; in [5], 0.99 mm; in [7], 0.55 mm; in assay [9] it was 0.6 mm; in [14] it was 18.35 µM. For the same compound, the Activity in [15] was 32.81%. For the same compound, the inhibition in vivo at 10 mg/kg in assay [2] is 31%; in assay [4] it was 33%; in [6], 45%; in [8], 61%; in assay [10], 28%; in [11], 70%. In addition, in [12], the Activity_index amounted to 1.7. Also, the viability at 10 µM in [13] came to 71.1%. Moreover, the minimum inhibitory concentration (MIC) in assay [16] was 0.25 µg/mL and 0.352 µM; in [17], 0.25 µg/mL and 0.352 µM; in assay [18], 0.5 µg/mL and 0.703 µM; in assay [19], 0.25 µg/mL and 0.352 µM; in assay [20], 0.5 µg/mL and 0.703 µM.
Take `CC[C@H](C)[C@H](NC(=O)OC(C)(C)C)C(=O)Oc1ccc(/C=C/C(=O)/C=C(O)/C=C/c2ccc(OC(=O)[C@@H](NC(=O)OC(C)(C)C)[C@@H](C)CC)c(OC)c2)cc1OC`: the Activity was found to be 1.61 mm in assay [1]; 1.27 mm in assay [3]; 0.91 mm in [5]; 0.69 mm in assay [7]; 0.49 mm in assay [9]; 20.81 µM in assay [14]. For the same compound, in [15], the Activity was found to be 23.82%. Moreover, the inhibition in vivo at 10 mg/kg was determined as 33% in assay [2]; 38% in assay [4]; 49% in assay [6]; 51% in [8]; 41% in assay [10]; 59% in assay [11]. Also, the Activity_index in assay [12] was determined as 2.07. Besides, the viability at 10 µM in assay [13] turned out to be 58.3%. For the same compound, the MIC is 0.125 µg/mL and 0.157 µM in assay [16]; 0.25 µg/mL and 0.314 µM in assay [17]; 0.125 µg/mL and 0.157 µM in assay [18]; 1 µg/mL and 1.26 µM in assay [19]; 2 µg/mL and 2.52 µM in assay [20].
For the compound `COc1cc(/C=C/C(=O)/C=C(O)/C=C/c2ccc(OC(=O)[C@@H](C)NC(=O)OC(C)(C)C)c(OC)c2)ccc1OC(=O)[C@@H](C)NC(=O)OC(C)(C)C`, the Activity in assay [1] was found to be 1.87 mm; in assay [3], 1.46 mm; in [5] it was 1.09 mm; in assay [7], 0.81 mm; in assay [9], 0.52 mm; in assay [14], 20.81 µM. Further, the Activity in [15] is recorded as 23.82%. In addition, the inhibition in vivo at 10 mg/kg in [2] came out at 22%; in [4] it was 29%; in assay [6] it was 39%; in [8], 42%; in [10], 37%; in assay [11], 48%. In addition, the Activity_index in [12] is on record as 2.07. For the same compound, the viability at 10 µM in assay [13] is 58.3%. Also, the MIC in assay [16] was 0.125 µg/mL and 0.176 µM; in assay [17], 1 µg/mL and 1.41 µM; in [18], 0.25 µg/mL and 0.352 µM; in assay [19] it was 0.25 µg/mL and 0.352 µM; in assay [20], 0.5 µg/mL and 0.703 µM.
As to `COc1cc(/C=C/C(=O)/C=C(O)/C=C/c2ccc(OC(=O)[C@H](Cc3c[nH]c4ccccc34)NC(=O)OCc3ccccc3)c(OC)c2)ccc1OC(=O)[C@H](Cc1c[nH]c2ccccc12)NC(=O)OCc1ccccc1`, the Activity in assay [1] amounted to 1.52 mm; in assay [3], 1.48 mm; in assay [5], 1.36 mm; in [7] it was 1.23 mm; in assay [9], 0.82 mm; in [14], 24.28 µM. Besides, in [15], the Activity came to 11.08%. For the same compound, the inhibition in vivo at 10 mg/kg came out at 37% in [2]; 28% in assay [4]; 24% in assay [6]; 12% in assay [8]; 1% in [10]; 14% in assay [11]. Also, in assay [12], the Activity_index worked out at 2.6. Besides, in assay [13], the viability at 10 µM was determined as 46.5%. Moreover, the MIC in [16] is 0.125 µg/mL and 0.124 µM; in assay [17], 0.5 µg/mL and 0.496 µM; in assay [18] it was 0.125 µg/mL and 0.124 µM; in [19] it was 0.25 µg/mL and 0.248 µM; in assay [20], 1 µg/mL and 0.991 µM.

The values above are taken from ChEMBL document CHEMBL4765295, “Synthesis, pharmacological profile and 2D-QSAR studies of curcumin-amino acid conjugates as potential drug candidates” (Eur J Med Chem, 2020).
